- melting point: 163 °C
Compound: CC[C@H](NC(=O)c1cc(F)ccc1NS(=O)(=O)c1cccc2cccnc12)c1ccccc1 [Example 52, (S)-5-Fluoro-2-(quinoline-8-sulfonylamino)-N-(1-phenylpropyl)-benzamide]

Source: patent publication US7235664B2, “Anthranilamides with heteroarylsulfonyl side chain, process of preparation, and use” (Sanofi-Aventis Deutschland GmbH, priority 2001, dated 2007)
